For the test, the target named is ATX (human His-tagged) (Homo sapiens (Human), UniProt Q13822). Put plainly: Human ATX enzyme inhibition assay (fluorescence quenching, MR121 substrate). The format is biochemical. The settings on record: 30 nM ATX, 1 μM MR121 substrate, 30° C. The source says:
Human ATX Enzyme Inhibition Assay
Assay working solutions were made as follows:
What is called IC50 is the concentration needed to halve the response being measured. High values mean a need for much substance, low ones inhibition by little substance. As to `CS(=O)(=O)c1cc(Cl)cc(COC(=O)N2CCC3(CC2)CN(C(=O)c2ccc4[nH]nnc4c2)C3)c1` [Example 1.09, 3-chloro-5-(methylsulfonyl)benzyl 2-(1H-benzo[d][1,2,3]triazole-5-carbonyl)-2,7-diazaspiro[3.5]nonane-7-carboxylate], the IC50 was 50.5 nM. This counts as double-digit nanomolar.
Then `O=C(CCc1cc(Cl)cc(Cl)c1)N1CCC2(CC1)CN(C(=O)c1ccc3[nH]nnc3c1)C2` [Example 1.04, 1-(2-(1H-benzo[d][1,2,3]triazole-5-carbonyl)-2,7-diazaspiro[3.5]nonan-7-yl)-3-(3,5-dichlorophenyl)propan-1-one], with 115 nM; and `O=C(OCc1ccc(C(F)(F)F)cc1F)N1CCC2(CC1)CN(C(=O)[C@@H]1CCc3[nH]nnc3C1)C2` [Example 16B, (R)-[2-fluoro-4-(trifluoromethyl)phenyl]methyl 2-[4,5,6,7-tetrahydro-1H-benzotriazole-5-carbonyl]-2,7-diazaspiro[3.5]nonane-7-carboxylate], with 9 nM.
The same measure for `O=C(OCc1cc(Cl)nc(Cl)c1)N1CCC2(CC1)CN(C(=O)c1ccc3[nH]nnc3c1)C2` [Example 12.01, (2,6-dichloropyridin-4-yl)methyl 2-(1H-benzo[d][1,2,3]triazole-5-carbonyl)-2,7-diazaspiro[3.5]nonane-7-carboxylate]: 150 nM.
The same measure for `CS(=O)(=O)c1cc(Cl)cc(COC(=O)N2CCC3(CC2)CN(S(=O)(=O)c2ccc4[nH]c(=O)sc4c2)C3)c1` [Example 3.6, 3-chloro-5-(methylsulfonyl)benzyl 2-(2-oxo-2,3-dihydrobenzo[d]thiazol-6-ylsulfonyl)-2,7-diazaspiro[3.5]nonane-7-carboxylate]: 67 nM; for `Nc1ccc(C(=O)N2CC3(CCN(C(=O)CCc4cc(Cl)cc(Cl)c4)CC3)C2)cc1O` [Example 1.05, 1-(2-(4-amino-3-hydroxybenzoyl)-2,7-diazaspiro[3.5]nonan-7-yl)-3-(3,5-dichlorophenyl)propan-1-one]: 1040 nM.
`CC(C)c1cc(Cl)ccc1OCC(=O)N1CCC2(CC1)CN(C(=O)c1ccc3[nH]nnc3c1)C2` [Example 1.26, 1-(2-(1H-benzo[d][1,2,3]triazole-5-carbonyl)-2,7-diazaspiro[3.5]nonan-7-yl)-2-(4-chloro-2-isopropylphenoxy)ethanone] returned an IC50 of 8 nM.
The same measure for `O=C(OCc1cncc(Br)c1)N1CCC2(CC1)CN(C(=O)c1ccc3[nH]nnc3c1)C2` [Example 12.09, (5-bromopyridin-3-yl)methyl 2-(1H-benzo[d][1,2,3]triazole-5-carbonyl)-2,7-diazaspiro[3.5]nonane-7-carboxylate]: 1640 nM; for `CS(=O)(=O)c1cc(COC(=O)N2CCC3(CC2)CN(S(=O)(=O)c2ccc4[nH]c(=O)oc4c2)C3)cc(C(F)(F)F)c1` [Example 12.45, 3-(methylsulfonyl)-5-(trifluoromethyl)benzyl 2-(2-oxo-2,3-dihydrobenzo[d]oxazol-6-ylsulfonyl)-2,7-diazaspiro[3.5]nonane-7-carboxylate]: 39 nM; for `CS(=O)(=O)c1cc(COC(=O)N2CCC3(CC2)CN(C(=O)c2ccc4[nH]c(=O)oc4c2)C3)cc(C(F)(F)F)c1` [Example 12.26, 3-(methylsulfonyl)-5-(trifluoromethyl)benzyl 2-(2-oxo-2,3-dihydrobenzo[d]oxazole-6-carbonyl)-2,7-diazaspiro[3.5]nonane-7-carboxylate]: 53 nM.
For `O=C(COc1cc(Cl)cc(Cl)c1)N1CCC2(CC1)CN(C(=O)c1ccc3[nH]nnc3c1)C2` [Example 6.2, 1-(2-(1H-benzo[d][1,2,3]triazole-5-carbonyl)-2,7-diazaspiro[3.5]nonan-7-yl)-2-(3,5-dichlorophenoxy)ethanone], the IC50 stood at 298 nM.
The same measure for `CC(OC(=O)N1CCC2(CC1)CN(C(=O)c1ccc3[nH]nnc3c1)C2)c1cc(Cl)cc(Cl)c1` (stereo not shown) [Example 12.07, 1-(3,5-dichlorophenyl)ethyl 2-(1H-benzo[d][1,2,3]triazole-5-carbonyl)-2,7-diazaspiro[3.5]nonane-7-carboxylate]: 378 nM.
Then `O=C(NCc1cc(Cl)cc(Cl)c1)N1CCC2(CC1)CN(C(=O)c1ccc3[nH]nnc3c1)C2` [Example 9, 2-(1H-Benzo[d][1,2,3]triazole-5-carbonyl)-N-(3,5-dichlorobenzyl)-2,7-diazaspiro[3.5]nonane-7-carboxamide], with 1060 nM; and `O=C(c1ccc2[nH]nnc2c1)N1CC2(CCN(C(=O)[C@@H]3C[C@H]3c3cc(F)cc(F)c3)CC2)C1` (relative stereo) [Example 6.5, (2-(1H-benzo[d][1,2,3]triazole-5-carbonyl)-2,7-diazaspiro[3.5]nonan-7-yl)(trans-2-(3,5-difluorophenyl)cyclopropyl)methanone], with 3220 nM; and `O=C(NC1CC2(C1)CC(C(=O)Nc1ccc3[nH]nnc3c1)C2)OCc1cc(Cl)cc(Cl)c1` (stereo not shown) [Example 12.29, 3,5-dichlorobenzyl 6-(1H-benzo[d][1,2,3]triazol-5-ylcarbamoyl)spiro[3.3]heptan-2-ylcarbamate], with 68.5 nM.
As for `O=C(OCc1ccc(Cl)c(F)c1)N1CCC2(CC1)CN(C(=O)c1ccc3[nH]nnc3c1)C2` [Example 12, 4-Chloro-3-fluorobenzyl 2-(1H-benzo[d][1,2,3]triazole-5-carbonyl)-2,7-diazaspiro[3.5]nonane-7-carboxylate], half-maximal inhibition (IC50) required 130 nM.
The same measure for `O=C(NC1CC2(C1)CN(C(=O)c1ccc3[nH]nnc3c1)C2)OCc1ccccc1` [Example 1.10, [2-(1H-benzotriazole-5-carbonyl)-2-aza-spiro[3.3]hept-6-yl]-carbamic acid benzyl ester]: 3700 nM; for `O=C(OCc1cc(Cl)cc(Cl)c1)N1CCC2(C1)CN(C(=O)c1ccc3[nH]c(=O)oc3c1)C2` [Example 2, 3,5-Dichlorobenzyl 2-(2-oxo-2,3-dihydro-benzo[d]oxazole-6-carbonyl)-2,6-diazaspiro[3.4]octane-6-carboxylate]: 26 nM; for `O=C(OCc1csc(Br)c1)N1CCC2(CC1)CN(C(=O)c1ccc3[nH]nnc3c1)C2` [Example 12.14, (5-bromothiophen-3-yl)methyl 2-(1H-benzo[d][1,2,3]triazole-5-carbonyl)-2,7-diazaspiro[3.5]nonane-7-carboxylate]: 270 nM.
Then `O=C(c1ccc2[nH]nnc2c1)N1CC2(CCN(C(=O)N3Cc4ccc(Cl)cc4C3)CC2)C1` [Example 10, (2-(1H-Benzo[d][1,2,3]-triazole-5-carbonyl)-2,7-diazaspiro[3.5]nonan-7-yl)(5-chloroisoindolin-2-yl)methanone], with 3440 nM; and `O=C(C#Cc1ccc(Cl)cc1)N1CCC2(CC1)CN(C(=O)c1ccc3[nH]nnc3c1)C2` [Example 6.9, 1-(2-(1H-benzo[d][1,2,3]triazole-5-carbonyl)-2,7-diazaspiro[3.5]nonan-7-yl)-3-(4-chlorophenyl)prop-2-yn-1-one], with 128 nM; and `O=C(C#Cc1cccc(Cl)c1)N1CCC2(CC1)CN(C(=O)c1ccc3[nH]nnc3c1)C2` [Example 6.10, 1-(2-(1H-benzo[d][1,2,3]triazole-5-carbonyl)-2,7-diazaspiro[3.5]nonan-7-yl)-3-(3-chlorophenyl)prop-2-yn-1-one], with 826 nM.
The same measure for `O=C(OCc1cccc(Cl)c1)N1CCC2(CC1)CN(C(=O)c1ccc3[nH]nnc3c1)C2` [Example 1.03, 3-chlorobenzyl 2-(1H-benzo[d][1,2,3]triazole-5-carbonyl)-2,7-diazaspiro[3.5]nonane-7-carboxylate]: 201 nM.
`O=C(c1cc(Cl)cc(Cl)c1)N1CCC2(CC1)CN(C(=O)c1ccc3[nH]nnc3c1)C2` [Example 6.3, (2-(1H-benzo[d][1,2,3]triazole-5-carbonyl)-2,7-diazaspiro[3.5]nonan-7-yl)(3,5-dichlorophenyl)methanone]: inhibition was half-maximal at 2660 nM (IC50).
Then `O=C(c1ccc2[nH]nnc2c1)N1CC2(CCN(c3nnc(-c4ccc(Cl)cc4)o3)CC2)C1` [Example 7.1, (1H-benzo[d][1,2,3]triazol-5-yl)(7-(5-(4-chlorophenyl)-1,3,4-oxadiazol-2-yl)-2,7-diazaspiro[3.5]nonan-2-yl)methanone], with 260 nM; and `O=C(OCc1ccccc1)N1CCC2(CC1)CC(Nc1ccc3[nH]c(=O)oc3c1)C2` [Example 11, Benzyl 2-(2-oxo-2,3-dihydrobenzo[d]oxazol-6-ylamino)-7-azaspiro[3.5]nonane-7-carboxylate], with 1290 nM; and `O=C(OCc1ccc(Cl)cc1Cl)N1CCC2(CC1)CN(C(=O)c1ccc3[nH]nnc3c1)C2` [Example 12.04, 2,4-dichlorobenzyl 2-(1H-benzo[d][1,2,3]triazole-5-carbonyl)-2,7-diazaspiro[3.5]nonane-7-carboxylate], with 17 nM.
Regarding `O=C(c1ccc2[nH]nnc2c1)N1CCC2(CCN(C(=O)c3cc4cc(Cl)ccc4[nH]3)C2)C1` (stereo not shown) [Example 6.6, (7-(1H-benzo[d][1,2,3]triazole-5-carbonyl)-2,7-diazaspiro[4.4]nonan-2-yl)(5-chloro-1H-indol-2-yl)methanone], it took 605 nM to reach half-maximal inhibition (IC50).
The same measure for `NS(=O)(=O)c1ccc(C(=O)N2CC3(CCN(C(=O)OCc4ccc(OC(F)(F)F)cc4)CC3)C2)cc1` [Example 1.22, 4-(trifluoromethoxy)benzyl 2-(4-sulfamoylbenzoyl)-2,7-diazaspiro[3.5]nonane-7-carboxylate]: 15 nM.
Then `CS(=O)(=O)c1ccc(COC(=O)N2CCC3(CC2)CN(C(=O)c2ccc4[nH]nnc4c2)C3)c(Cl)c1` [Example 12.28, 2-chloro-4-(methylsulfonyl)benzyl 2-(1H-benzo[d][1,2,3]triazole-5-carbonyl)-2,7-diazaspiro[3.5]nonane-7-carboxylate], with 138 nM; and `O=C(NC1CC2(C1)CN(C(=O)OCc1ccc(F)c(Cl)c1)C2)c1ccc2[nH]nnc2c1` [Example 12.21, 6-[(1H-benzotriazole-5-carbonyl)-amino]-2-aza-spiro[3.3]heptane-2-carboxylic acid 3-chloro-4-fluoro-benzyl ester], with 1250 nM.

For the origin of these results see patent US9493486B2, “Diazaspirocycloalkane and azaspirocycloalkane” (Hoffmann-La Roche Inc., priority 2012, dated 2016).
